Experimental data taken from paper PMC9694494, “Resveratrol/Hydrazone Hybrids: Synthesis and Chemopreventive Activity against Colorectal Cancer Cells” (Pharmaceutics, 2022).
Where two headings read alike, the source gives them in different places.

Experiments:
CHO-K1 cells = assay: SRB cell viability (cytotoxicity), CHO-K1; assay type: cell-based; conditions: Cricetulus griseus, CHO-K1 nonmalignant cells, read-out: IC50 ± SEM CHO
Procedure: (§1) Human colon cancer cell lines (SW480 and SW620), together with nonmalignant cells (CHO-K1 and HaCaT) were used to study the biological activity. Cells were purchased from the European Collection of Authenticated Cell Cultures (ECACC, UK). Dulbecco’s Modified Eagle Medium (DMEM) containing heat-inactivated (56 °C) horse serum (10%), non-essential amino acids (1%) and antibiotics (penicillin/streptomycin, 1%) (Gibco Invitrogen, Carlsbad, CA, USA) was used to maintain the cells, reducing the horse serum to 3%, and, adding insulin ([…]), transferrin ([…]) and selenium (5 ng/mL) (ITS-defined medium; Gibco, Invitrogen, Carlsbad, CA, USA) for all the experiments.
(§2) The colorimetric test with Sulforhodamine B (SRB) was used to evaluate cell viability. Cell density was adjusted to seed 20.000 cells/well in 96-well tissue culture plates. Cells were first incubated for 24 h and then treated with the synthesized hybrids, the lead compounds (PIH and resveratrol), and the reference drug (5-FU) (concentrations between 0.01 and 200 µM), using DMSO (below 1%) as vehicle control. The optimum conditions were 37 °C and 5% CO2. After the end of each treatment, cold trichloroacetic acid (MERCK, 50% v/v) was added and preserved for one hour at 4 °C, to fix the cells. Then, cell proteins were stained with 0.4% (w/v) SRB (Sigma-Aldrich, St. Louis, MO, USA), and subsequently washed with acetic acid (1%) to remove unbound SRB. After air-drying, protein-bound SRB was solubilized in 10 mM Tris-base before reading the absorbance at 492 nm in a microplate reader (Mindray MR-96A). All experiments were performed at least three times.

HaCaT cells = assay: SRB cell viability (cytotoxicity), HaCaT; assay type: cell-based; conditions: Homo sapiens, HaCaT nonmalignant cells, read-out: IC50 ± SEM HACAT
Procedure: as §1, §2

SW480 cells [1] = assay: SRB cell viability (cytotoxicity), SW480; assay type: cell-based, human; conditions: for Selectivity Index SI1: CHO-K1/SW480 IC50 ratio; for Selectivity Index SI2: HaCaT/SW480 IC50 ratio; for IC50: Homo sapiens, SW480, SRB, read-out: IC50 ± SEM SW480
Procedure: as §1, §2

SW620 cells = assay: SRB cell viability (cytotoxicity), SW620; assay type: cell-based, human; conditions: for Selectivity Index SI3: CHO-K1/SW620 IC50 ratio; for Selectivity Index SI4: HaCaT/SW620 IC50 ratio; for IC50: Homo sapiens, SW-620, SRB, read-out: IC50 ± SEM SW620
Procedure: as §1, §2

SW480 cells [2] = assay: Antiproliferative activity (SRB, 2-8 days), SW480; assay type: cell-based; conditions: Homo sapiens, read-out: Viability (%) ± SE; for viability at 3 µM: SW480, 3 µM; for viability at 6 µM: SW480, 6 µM; for viability at 12 µM: SW480, 12 µM; for viability at 24 µM: SW480, 24 µM; for viability at 48 µM: SW480, 48 µM
Procedure: The procedure for evaluating the antiproliferative activity was carried out using the same colorimetric test (SRB) described for cell viability, with minor modifications. Briefly, 2500 cells/well were seeded in 96-well tissue culture plates and incubated as in the previously described conditions for 0, 2, 4, 6, and 8 days. […] The culture medium was changed every 48 h. After each incubation time, cells were fixed, stained, and read as previously described for this technique.

SW480 cells [3] = assay: Mitochondrial membrane potential (DiOC6/PI flow cytometry), SW480; assay type: cell-based, human; conditions: SW480, treated at IC50 value, DiOC6/PI
Procedure: To evaluate changes in mitochondrial membrane permeability, the fluorescent dyes DiOC6 (3,3′-dihexyloxacarbocyanine iodide, Thermo Fisher Scientific, Waltham, MA, USA) and propidium iodide (PI) were used. Cell density was adjusted to seed 2.5 × 10^5 cells/well in 6-well tissue culture plates. […] Subsequently, cells were scraped with the same culture mean and stained with both fluorescent dyes, incubating at room temperature for 30 min in darkness. For each sample, 10,000 events were analyzed through flow cytometry with excitation at 488 nm and detection of the emission with the green (530/15 nm) and the red (610/20 nm) filters. The results informed about the cells with depolarized mitochondrial membranes.

SMILES: COc1ccc(C(=O)N/N=C/c2c(O)cc(O)cc2/C=C/c2ccc(O)cc2)c(OC)c1 [6e, N′-((E)-2,4-dihydroxy-6-((E)-4-hydroxystyryl)benzylidene)-2,4-dimethoxybenzohydrazide]
- IC50 (CHO-K1 cells; 24 H): 20.6 ± 3.06 µM
- IC50 (CHO-K1 cells; 48 H): 18.8 ± 1.9 µM
- IC50 (HaCaT cells; 24 H): 34.4 ± 3.96 µM
- IC50 (HaCaT cells; 48 H): 19.1 ± 0.8 µM
- Selectivity Index SI1 (SW480 cells [1]; 24 H): 0.85
- Selectivity Index SI2 (SW480 cells [1]; 24 H): 1.42
- Selectivity Index SI1 (SW480 cells [1]; 48 H): 2.89
- Selectivity Index SI2 (SW480 cells [1]; 48 H): 2.94
- IC50 (SW480 cells [1]; 24 H): 24.2 ± 3.29 µM
- IC50 (SW480 cells [1]; 48 H): 6.5 ± 1.9 µM
- selectivity (SI) (SW480 cells [1]; SW480 versus the nonmalignant cell lines, 48 h after treatment): > 1
- Selectivity Index SI3 (SW620 cells; 24 H): 0.28
- Selectivity Index SI4 (SW620 cells; 24 H): 0.46
- Selectivity Index SI3 (SW620 cells; 48 H): 0.67
- Selectivity Index SI4 (SW620 cells; 48 H): 0.69
- IC50 (SW620 cells; 24 H): 74.8 ± 12.9 µM
- IC50 (SW620 cells; 48 H): 27.8 ± 3.9 µM
- viability at 3 µM (SW480 cells [2]; 48 h, 2 days after plating): 95 ± 3.11%
- viability at 6 µM (SW480 cells [2]; 48 h, 2 days after plating): 58.9 ± 0.89%
- viability at 12 µM (SW480 cells [2]; 48 h, 2 days after plating): 38.4 ± 2.67%
- viability at 24 µM (SW480 cells [2]; 48 h, 2 days after plating): 23.9 ± 0.82%
- viability at 48 µM (SW480 cells [2]; 48 h, 2 days after plating): 9.44 ± 1.17%
- viability at 3 µM (SW480 cells [2]; 96 h, 4 days after plating): 68.5 ± 1.31%
- viability at 6 µM (SW480 cells [2]; 96 h, 4 days after plating): 10.5 ± 0.87%
- viability at 12 µM (SW480 cells [2]; 96 h, 4 days after plating): 2.78 ± 0.42%
- viability at 24 µM (SW480 cells [2]; 96 h, 4 days after plating): 0.81 ± 0.38%
- viability at 48 µM (SW480 cells [2]; 96 h, 4 days after plating): 0.3 ± 0.33%
- viability at 3 µM (SW480 cells [2]; 144 h, 6 days after plating): 49 ± 2.08%
- viability at 6 µM (SW480 cells [2]; 144 h, 6 days after plating): 5.03 ± 0.19%
- viability at 12 µM (SW480 cells [2]; 144 h, 6 days after plating): 0.76 ± 0.36%
- viability at 24 µM (SW480 cells [2]; 144 h, 6 days after plating): 0%
- viability at 48 µM (SW480 cells [2]; 144 h, 6 days after plating): 0%
- viability at 3 µM (SW480 cells [2]; 192 h, 8 days after plating): 33.86 ± 0.3%
- viability at 6 µM (SW480 cells [2]; 192 h, 8 days after plating): 2.52 ± 0.1%
- viability at 12 µM (SW480 cells [2]; 192 h, 8 days after plating): 0.48 ± 0.11%
- viability at 24 µM (SW480 cells [2]; 192 h, 8 days after plating): 0%
- viability at 48 µM (SW480 cells [2]; 192 h, 8 days after plating): 0%
- Q1: PI-positive cells with membrane damage (SW480 cells [3]): 0.288%
- Q2: PI-positive cells with membrane damage (SW480 cells [3]): 0.831%
- Q3: DiOC6 high, live cells with high membrane polarization (SW480 cells [3]): 98.6%
- Q4: DiOC6 low, cells in latency that lose membrane polarization (SW480 cells [3]): 0.305%
